Series [1] concerns the target T1, human erythrocyte 20S proteasome, chymotrypsin-like (CT-L) activity (Homo sapiens, UniProt P28074).
T1 construct: three activities of human erythrocyte 20S proteasome; from tissue; host or cells: human erythrocytes
The experiment in a line: 20S proteasome chymotrypsin-like (CT-L) activity, Suc-LLVY-AMC hydrolysis. Format: biochemical. The note with it: for IC50: pH 7.5. The method, then:
(§1) Rabbit erythrocyte 20S proteasome was obtained from Boston Biochem, Cambridge, USA. The fluorogenic substrates Suc-LLVY-AMC, Boc-LRR-AMC and Z-LLE-βNA used to measure the proteasome activities CT-L, T-L and PA respectively were purchased from Bachem (France). Other reagents and solvents were purchased from commercial sources. Fluorescence was measured using a BMG Fluostar microplate reader.
(§2) The inhibitory activity of compounds is expressed as IC50, which corresponds to the concentration of proteasome inhibitor leading to a loss of activity of 50%. The values of IC50 were calculated by fitting the experimental data to equation 1: % Inhibition=100×(1−Vi/V0)=100 [I]0/(IC50+[I]0), or equation 2: % Inhibition=100 [I]0^nH/(IC50^nH+[I]0^nH), where Vi is the initial rate in the presence of the inhibitor, V0 is the initial rate in the absence of the inhibitor, [I]0 is the inhibitor concentration, nH is the Hill number (FIG. 1).
(§3) Compounds 24, 25 and 31-35 were tested in duplicate against three activities of human erythrocyte 20S proteasome at 100 and 50 μM in the appropriate buffer (pH 7.5): 20 mM Tris HCl, 10% (v/v) glycerol, 0.01% (w/v) SDS and 2% DMSO (CT-L and PA activities); 20 mM Tris HCl, 10% (v/v) glycerol, and 2% DMSO (T-L activity). The inhibitory activities were analyzed as described above for compounds 1-23.

The target of series [2] is T2, human erythrocyte 20S proteasome, post-acid (PA) activity (Homo sapiens, UniProt P28072).
T2 construct: three activities of human erythrocyte 20S proteasome; from tissue; host or cells: human erythrocytes
The experiment in a line: 20S proteasome post-acid (PA) activity, Z-LLE-βNA hydrolysis. Further details: key: NI: No Inhibition. It counts as biochemical. The note with it: screened at 100 and 50 μM. Here is the method: as §1, §2, §3

Series [3] deals with T3, human erythrocyte 20S proteasome, trypsin-like (T-L) activity (Homo sapiens, UniProt Q99436).
T3 construct: three activities of human erythrocyte 20S proteasome; from tissue; host or cells: human erythrocytes
Kind of series: 20S proteasome trypsin-like (T-L) activity, Boc-LRR-AMC hydrolysis. It counts as biochemical. Further details: key to Inhibition of trypsin-like activity (NI): NI: No Inhibition. The note with it: for inhibition at 100 µM: 100 μM inhibitor, read-out: % inhibition (inhibitor concentration) on trypsin-like activity; for IC50: pH 7.5. The method, then: as §1, §2, §3

In series [4] the target is T4, rabbit reticulocyte 20S proteasome, chymotrypsin-like (CT-L) activity (UniProt G1T4Q9).
T4 construct: IC50 on chymotrypsin-like activity; other: rabbit 20S proteasome, pH 8, 37° C; Rabbit erythrocyte 20S proteasome was obtained from Boston Biochem, Cambridge, USA
The experiment in a line: 20S proteasome chymotrypsin-like (CT-L) activity, Suc-LLVY-AMC hydrolysis. It counts as biochemical. The following applies: rabbit 20S proteasome, pH 8, 37° C. Here is the method:
as §1
(§4) Compounds 1-23 were tested for their potential to inhibit the CT-L, T-L and PA activities of the rabbit reticulocyte 20S proteasome. Enzyme activities were determined by monitoring the hydrolysis of the appropriate fluorogenic substrate (λexc=360, λem=465 nm for AMC substrates, and λexc=340, λem=405 nm for the βNA substrate) for 1 h at 37° C.
(§5) In the in vitro screening, each compound was tested in duplicate against the three activities, at 100 μM and 50 μM in the corresponding buffer. The buffer were (pH 8): 50 mM Tris, 150 mM NaCl, 10% (v/v) glycerol, 0.025% (w/v) SDS, and 3% (v/v) DMSO (CT-L and PA activities); 50 mM Tris, 150 mM NaCl, 10% (v/v) glycerol, and 3% (v/v) DMSO (T-L activity).
as §2

Series [5] deals with rabbit reticulocyte 20S proteasome, post-acid (PA) activity (Oryctolagus cuniculus, UniProt G1T235). Kind of series: 20S proteasome post-acid (PA) activity, Z-LLE-βNA hydrolysis. Further details: key to Inhibition of post-acid activity (NI): NI: No Inhibition. Format: biochemical. The following applies: rabbit 20S proteasome; for Inhibition of post-acid activity (NI): screened at 100 μM and 50 μM; for IC50: pH 8, 37° C. Here is the method:
as §1, §4, §5, §2

In series [6] the test system is rabbit reticulocyte 20S proteasome, trypsin-like (T-L) activity. Kind of series: 20S proteasome trypsin-like (T-L) activity, Boc-LRR-AMC hydrolysis. Format: biochemical. Also on record: key to Inhibition of trypsin-like activity (NI): NI: No Inhibition. The note with it: rabbit 20S proteasome; for Inhibition of trypsin-like activity (NI): screened at 100 μM and 50 μM. Here is the method:
as §1, §4, §5, §2

The target of series [7] is T5, rabbit reticulocyte 20S proteasome, chymotrypsin-like (CT-L) activity (Oryctolagus cuniculus, UniProt G1T4Q9).
T5 construct: IC50 on chymotrypsin-like activity; other: rabbit 20S proteasome, pH 8, 37° C; Rabbit erythrocyte 20S proteasome was obtained from Boston Biochem, Cambridge, USA
T5 sequence (G1T4Q9 1-263): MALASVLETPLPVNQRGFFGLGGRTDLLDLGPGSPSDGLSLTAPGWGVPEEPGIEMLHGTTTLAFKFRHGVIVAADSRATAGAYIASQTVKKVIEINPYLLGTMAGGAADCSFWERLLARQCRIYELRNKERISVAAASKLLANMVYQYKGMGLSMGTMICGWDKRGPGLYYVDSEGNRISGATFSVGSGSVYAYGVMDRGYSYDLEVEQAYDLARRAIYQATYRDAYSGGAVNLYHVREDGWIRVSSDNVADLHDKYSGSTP
The experiment in a line: 20S proteasome chymotrypsin-like (CT-L) activity, Suc-LLVY-AMC hydrolysis. It counts as biochemical. The note with it: rabbit 20S proteasome, pH 8, 37° C. The method, then:
as §1, §4, §5, §2

The structures appear in SMILES notation.

Sequence of rabbit reticulocyte 20S proteasome, post-acid (PA) activity (G1T235 entry or part of it): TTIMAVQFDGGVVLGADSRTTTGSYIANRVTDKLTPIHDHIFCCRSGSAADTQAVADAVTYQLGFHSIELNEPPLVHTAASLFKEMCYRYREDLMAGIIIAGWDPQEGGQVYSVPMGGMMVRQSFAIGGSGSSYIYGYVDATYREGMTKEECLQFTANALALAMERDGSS

With `CC(C)N(Cc1nc(CN2CCCCC2)no1)C(=O)COc1ccc(Br)cc1` [Compound 35], the melting point came out at 144 °C. 37.3 ± 4.2 µM corresponded to half-maximal inhibition in series [1] (IC50). In series [2], the “Inhibition of post-acid activity (NI)” value is “NI”. The inhibition at 100 µM in series [3] is 47%.
`Cc1cccc(OCC(=O)N(Cc2nc(-c3cccc(C)c3)no2)C(C)C)c1` [Compound 15]: in series [4], the IC50 is around 27 µM. Also, the “Inhibition of post-acid activity (NI)” value in series [5] is on record as “NI”. For the same compound, the “Inhibition of trypsin-like activity (NI)” value in series [6] is reported as “NI”.
`COc1ccc(-c2noc(CN(C(=O)COc3ccc(Br)cc3)C(C)C)n2)cc1` [Compound 12] displayed an IC50 in series [4] of 0.1 ± 0.01 µM. Moreover, the “Inhibition of post-acid activity (NI)” value in series [5] is on record as “NI”. Also, the “Inhibition of trypsin-like activity (NI)” value in series [6] is reported as “NI”.
On to `Cc1noc(CN(C(=O)COc2ccc(Br)cc2)C(C)C)n1` [Compound 27], for which the IC50 in series [4] was determined as 12.3 ± 0.3 µM; in series [5] it was 76 ± 2 µM. Moreover, the “Inhibition of trypsin-like activity (NI)” value in series [6] is “NI”.
Turning to `CC(C)N(Cc1nc(CN2CCOCC2)no1)C(=O)COc1ccc(Br)cc1` [Compound 33], the melting point was 110 °C. In addition, the IC50 in series [1] is 78.6 ± 1.6 µM. For the same compound, in series [2], the “Inhibition of post-acid activity (NI)” value was “NI”. Moreover, the inhibition at 100 µM in series [3] stood at 42%.
Compound `CC(C)N(Cc1nc(-c2ccc(Oc3ccccc3)cc2)no1)C(=O)COc1ccc(Br)cc1` [Compound 24] registered a melting point of 87 °C. Moreover, the IC50 in series [1] stood at 0.61 ± 0.03 µM. For the same compound, the “Inhibition of post-acid activity (NI)” value in series [2] is given as “NI”. In addition, the IC50 in series [3] is 10.8 ± 0.4 µM.
The compound `C=CCN(Cc1nc(-c2ccccc2)no1)C(=O)COc1ccc(C)cc1` [Compound 18] registered an IC50 in series [4] of 0.33 ± 0.03 µM. Moreover, the “Inhibition of post-acid activity (NI)” value in series [5] is “NI”. In series [6], the “Inhibition of trypsin-like activity (NI)” value is listed as “NI”.
Regarding `COc1ccc(-c2noc(CN(C(=O)COc3ccc(Br)cc3)C(C)C)n2)cc1OC` [Compound 25], the melting point amounted to 135 °C. For the same compound, the IC50 in series [1] was determined as 0.037 ± 0.003 µM. The “Inhibition of post-acid activity (NI)” value in series [2] was “NI”. The “Inhibition of trypsin-like activity (NI)” value in series [3] (screened at 100 and 50 μM) is given as “NI”.
Consider `COc1ccc(OCC(=O)N(Cc2nc(-c3cccc(C)c3)no2)C(C)C)cc1` [Compound 5], for which the midpoint of inhibition in series [4], the IC50, lay at 0.91 ± 0.12 µM. Besides, the “Inhibition of post-acid activity (NI)” value in series [5] is on record as “NI”. In addition, in series [6], the “Inhibition of trypsin-like activity (NI)” value is “NI”.
As to `CCOc1ccc(C(=O)N(Cc2nc(-c3ccc(OC)cc3)no2)C(C)C)cc1` [Compound 20], in series [7], the IC50 was around 18 µM. For the same compound, the “Inhibition of post-acid activity (NI)” value in series [5] is recorded as “NI”. The “Activation × of trypsin-like activity” value in series [6] (50 μM compound, fold activation) is recorded as “Activation × 3.4 (50 μM)”.
Regarding `CC(C)c1noc(CN(C(=O)COc2ccc(Br)cc2)C(C)C)n1` [Compound 28], the values for the IC50 in series [4] and in series [5] were 12.3 ± 0.3 µM and 45 ± 1 µM, respectively. Further, the “Inhibition of trypsin-like activity (NI)” value in series [6] is recorded as “NI”.
As to `CC(C)N(Cc1nc(C(C)(C)C)no1)C(=O)COc1ccc(Br)cc1` [Compound 29], the IC50 turned out to be 81 ± 4 µM in series [4] and 28 ± 3 µM in series [5]. The “Inhibition of trypsin-like activity (NI)” value in series [6] was “NI”.
On to `Cc1cccc(-c2noc(CN(C(=O)COc3ccc(Br)cc3)C(C)C)n2)c1` [Compound 4], for which the midpoint of inhibition in series [4], the IC50, lay at 0.51 ± 0.07 µM. For the same compound, the “Inhibition of post-acid activity (NI)” value in series [5] is listed as “NI”. For the same compound, in series [6] (50 μM inhibitor), the “% inhibition (inhibitor concentration) on trypsin-like activity” value (“% inhibition (inhibitor concentration)” for short) is on record as 7.3%.
As for `COc1ccc(-c2noc(CN(C(=O)COc3ccc(C)cc3)C(C)C)n2)cc1` [Compound 10], inhibition in series [4] was half-maximal at 0.71 ± 0.04 µM (IC50). Further, the “Inhibition of post-acid activity (NI)” value in series [5] is “NI”. In series [6], the “Inhibition of trypsin-like activity (NI)” value is given as “NI”.
On to `CC(C)N(Cc1nc(-c2cccc3ccccc23)no1)C(=O)COc1ccc(Br)cc1` [Compound 32], for which the melting point is 114 °C. Moreover, the inhibition at 100 µM in series [1] (100 μM inhibitor, read-out: % inhibition (inhibitor concentration) on chymotrypsin-like activity) was 30%. The “Inhibition of post-acid activity (NI)” value in series [2] is “NI”. This compound also yielded an IC50 in series [3] of 29.1 ± 0.9 µM.
The compound `COc1ccc(C(=O)NCCc2nnc(SCC(=O)Nc3cc(C)ccc3OC)n2C)cc1` [Compound 22] registered an IC50 in series [7] of 80 µM. Also, the inhibition at 100 µM in series [5] (100 μM inhibitor, read-out: % inhibition (inhibitor concentration) on post-acid activity) came out at 16%. In addition, the “% inhibition (inhibitor concentration)” value in series [6] (100 μM inhibitor) is listed as 22% (100 μM).
Regarding `COc1ccc(-c2noc(CN(C(=O)C(C)Oc3ccccc3)C(C)C)n2)cc1` (stereo not drawn) [Compound 14], in series [4], the IC50 stood at 8.05 ± 0.83 µM. In addition, in series [5], the “Inhibition of post-acid activity (NI)” value is given as “NI”. For the same compound, the “Inhibition of trypsin-like activity (NI)” value in series [6] is recorded as “NI”.
`CCc1ccc(OCC(=O)N(Cc2nc(-c3cccc(C)c3)no2)C(C)C)cc1` [Compound 3]: in series [4], 0.17 ± 0.01 µM corresponded to half-maximal inhibition (IC50). Also, the “Inhibition of post-acid activity (NI)” value in series [5] is listed as “NI”. In addition, the “Inhibition of trypsin-like activity (NI)” value in series [6] is given as “NI”.
With `CCN(CC)Cc1noc(CN(C(=O)COc2ccc(Br)cc2)C(C)C)n1` [Compound 34], the melting point was found to be 168 °C. The IC50 in series [1] was determined as 30.9 ± 2.3 µM. For the same compound, in series [2], the “Inhibition of post-acid activity (NI)” value was “NI”. In addition, the inhibition at 100 µM in series [3] was 28%.
Regarding `COc1ccc(Cl)cc1NC(=O)CSc1nnc(C(CO)NC(=O)c2ccccc2)n1C` (stereo not drawn) [Compound 23], in series [7], the IC50 came out at 85 µM. Also, the “Inhibition of post-acid activity (NI)” value in series [5] was “NI”. Also, the “% inhibition (inhibitor concentration)” value in series [6] (100 μM inhibitor) was 50% (100 μM).
In the case of `CCc1ccc(OCC(=O)N(Cc2nc(-c3ccc(OC)cc3)no2)C(C)C)cc1` [Compound 7], the IC50 in series [4] turned out to be 0.09 ± 0.006 µM. Moreover, the “Inhibition of post-acid activity (NI)” value in series [5] is “NI”. Further, the “Inhibition of trypsin-like activity (NI)” value in series [6] is on record as “NI”.

For the origin of these results see patent US20110257176A1, “NITROGEN HETEROCYCLE DERIVATIVES AS PROTEASOME MODULATORS” (INSTITUT NATIONAL DE LA SANTE ET DE LA RECHERCHE MEDICALE …, priority 2008, published 2011).
